“And” between values parts separate entries of the source, which are not always exact repeats. Equal values may be shown once. ± gives the expanded uncertainty stated by the source.
Key:
[1] = for speed of sound: 100 kPa, Sing-around technique in a fixed-path interferometer; for speed of sound / viscosity / mass density: Liquid; for viscosity / mass density: 101 kPa; for viscosity: Falling or rolling sphere viscometry; for mass density: Vibrating tube method; for surface tension liquid-gas: 294.4 K, Pendant drop shape
[2] = xn = mol fraction of the nth substance listed; conditions: x1 = 1; for speed of sound: 100 kPa, Sing-around technique in a fixed-path interferometer; for speed of sound / viscosity / mass density: Liquid; for viscosity / mass density: 101 kPa; for viscosity: Falling or rolling sphere viscometry; for mass density: Vibrating tube method; for surface tension liquid-gas: 294.4 K, Pendant drop shape

CCc1ccccc1 [ethylbenzene]
[1]
Conditions	mass density [kg/m3]	speed of sound [m/s]	viscosity [mPa·s]
293.15 K	866.95 ± 0.31	1339.7 ± 0.7	0.67 ± 0.01
303.15 K	858.15 ± 0.31	1298.1 ± 0.7	0.59 ± 0.01
313.15 K	849.29 ± 0.31	1256.9 ± 0.7	–
323.15 K	840.38 ± 0.31	1216.4 ± 0.7	0.48 ± 0.01
333.15 K	831.4 ± 0.32	1176.4 ± 0.7	0.44 ± 0.01
343.15 K	822.3 ± 0.3	–	0.4 ± 0.01
353.15 K	813.1 ± 0.3	–	0.36 ± 0.01
363.15 K	803.7 ± 0.3	–	0.33 ± 0.01
373.15 K	794.2 ± 0.3	–	0.31 ± 0.01

Conditions	surface tension liquid-gas [mN/m]
[1]	29.2 ± 0.4

CCc1ccccc1 [ethylbenzene] + CCCCCCCCCCCCCCCC
[2]
Conditions	mass density [kg/m3]	speed of sound [m/s]	viscosity [mPa·s]
293.15 K	866.95 ± 0.31	1339.7 ± 0.7	0.67 ± 0.01
303.15 K	858.15 ± 0.31	1298.1 ± 0.7	0.59 ± 0.01
313.15 K	849.29 ± 0.31	1256.9 ± 0.7	–
323.15 K	840.38 ± 0.31	1216.4 ± 0.7	0.48 ± 0.01
333.15 K	831.4 ± 0.32	1176.4 ± 0.7	0.44 ± 0.01
343.15 K	822.3 ± 0.3	–	0.4 ± 0.01
353.15 K	813.1 ± 0.3	–	0.36 ± 0.01
363.15 K	803.7 ± 0.3	–	0.33 ± 0.01
373.15 K	794.2 ± 0.3	–	0.31 ± 0.01

Conditions	surface tension liquid-gas [mN/m]
[2]	29.2 ± 0.4

CCCCCCCCCCCCCCCC [hexadecane]
[1]
Conditions	mass density [kg/m3]	speed of sound [m/s]	viscosity
293.15 K	773.49 ± 0.33	1357.3 ± 0.9	3.44 ± 0.03 mPa·s
303.15 K	766.55 ± 0.34	1320 ± 0.9	2.72 ± 0.02 mPa·s
313.15 K	759.63 ± 0.34	1283.3 ± 0.9	–
323.15 K	752.71 ± 0.34	1247.3 ± 0.9	1.82 ± 0.02 mPa·s
333.15 K	745.79 ± 0.34	1212 ± 0.9	1.54 ± 0.02 mPa·s and 1.53 ± 0.02 mPa·s
343.15 K	738.9 ± 0.3	–	1.31 ± 0.02 mPa·s
353.15 K	731.8 ± 0.3	–	1.13 ± 0.01 mPa·s
363.15 K	724.7 ± 0.3	–	0.99 ± 0.01 mPa·s
373.15 K	717.5 ± 0.3	–	0.87 ± 0.01 mPa·s

Conditions	surface tension liquid-gas [mN/m]
[1]	27.3 ± 0.4

Cc1ccccc1 [toluene]
[1]
Conditions	mass density [kg/m3]	speed of sound [m/s]	viscosity [mPa·s]
293.15 K	866.84 ± 0.31	1326.8 ± 0.8	0.59 ± 0.01
303.15 K	857.53 ± 0.31	1283.7 ± 0.7	0.52 ± 0.01
313.15 K	848.14 ± 0.32	1241.1 ± 0.7	–
323.15 K	838.7 ± 0.32	1199 ± 0.7	0.42 ± 0.01
333.15 K	829.16 ± 0.32	1157.6 ± 0.7	0.38 ± 0.01
343.15 K	819.6 ± 0.3	–	0.35 ± 0.01
353.15 K	809.7 ± 0.3	–	0.32 ± 0.01
363.15 K	799.7 ± 0.3	–	0.27 ± 0.01

Conditions	surface tension liquid-gas [mN/m]
[1]	28.4 ± 0.4

Cc1ccccc1 [toluene] + CCCCCCCCCCCCCCCC
[2]
Conditions	mass density [kg/m3]	speed of sound [m/s]	viscosity [mPa·s]
293.15 K	866.84 ± 0.31	1326.8 ± 0.8	0.59 ± 0.01
303.15 K	857.53 ± 0.31	1283.7 ± 0.7	0.52 ± 0.01
313.15 K	848.14 ± 0.32	1241.1 ± 0.7	–
323.15 K	838.7 ± 0.32	1199 ± 0.7	0.42 ± 0.01
333.15 K	829.16 ± 0.32	1157.6 ± 0.7	0.38 ± 0.01
343.15 K	819.6 ± 0.3	–	0.35 ± 0.01
353.15 K	809.7 ± 0.3	–	0.32 ± 0.01
363.15 K	799.7 ± 0.3	–	0.27 ± 0.01

Conditions	surface tension liquid-gas [mN/m]
[2]	28.4 ± 0.4

Source: the NIST ThermoML archive (doi:10.1021/je500498m)
